# Experimental data from ChEMBL document CHEMBL6134814, “Asiatic acid and its derivatives: Pharmacological insights and applications” (Eur J Med Chem, 2025).
# What was measured:
# A-375 [1] = test: Cytotoxicity against human A-375 cells assessed as reduction in cell growth incubated for 72 hrs by SRB assay; format: functional, cell-based; conditions: A-375, 72 h
# HT-29 [2] = test: Cytotoxicity against human HT-29 cells assessed as reduction in cell growth incubated for 72 hrs by SRB assay; format: functional, cell-based; conditions: HT-29, 72 h
# MCF7 [3] = test: Cytotoxicity against human MCF7 cells assessed as reduction in cell growth incubated for 72 hrs by SRB assay; format: functional, cell-based; conditions: MCF7, 72 h
# A2780 [4] = test: Cytotoxicity against human A2780 cells assessed as reduction in cell growth incubated for 72 hrs by SRB assay; format: functional, cell-based; conditions: A2780, 72 h
# [5] = Inhibition of alpha-glucosidase (unknown origin); set-up: species or system Homo sapiens
# HepG2 [6] = test: Antiproliferative activity against human HepG2 cells assessed as reduction in cell viability incubated for 48 hrs by MTT assay; format: functional, cell-based; conditions: HepG2, 48 h
# SGC-7901 [7] = test: Antiproliferative activity against human SGC-7901 cells assessed as reduction in cell viability incubated for 48 hrs by MTT assay; format: functional, cell-based; conditions: SGC-7901, 48 h
# Carbonic anhydrase 1 = Carbonic anhydrase 1 (Homo sapiens, UniProt P00915); test: Binding affinity to human carbonic anhydrase I assessed as inhibition constant
# Carbonic anhydrase 1, sequence (P00915 whole entry): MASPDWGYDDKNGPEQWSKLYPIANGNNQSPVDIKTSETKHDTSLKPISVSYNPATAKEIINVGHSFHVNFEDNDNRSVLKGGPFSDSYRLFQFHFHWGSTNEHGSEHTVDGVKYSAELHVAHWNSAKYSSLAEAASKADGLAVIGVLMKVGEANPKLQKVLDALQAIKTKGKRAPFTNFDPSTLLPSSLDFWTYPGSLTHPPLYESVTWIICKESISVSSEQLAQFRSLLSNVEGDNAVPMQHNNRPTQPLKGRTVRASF
# Carbonic anhydrase 2 = Carbonic anhydrase 2 (Homo sapiens, UniProt P00918); test: Binding affinity to human carbonic anhydrase 2 assessed as inhibition constant
# [8] = biological target: Carbonic anhydrase 5A, mitochondrial (Homo sapiens, UniProt P35218); test: Binding affinity to human carbonic anhydrase 5A assessed as inhibition constant
# Carbonic anhydrase 5A, mitochondrial, sequence (P35218 whole entry): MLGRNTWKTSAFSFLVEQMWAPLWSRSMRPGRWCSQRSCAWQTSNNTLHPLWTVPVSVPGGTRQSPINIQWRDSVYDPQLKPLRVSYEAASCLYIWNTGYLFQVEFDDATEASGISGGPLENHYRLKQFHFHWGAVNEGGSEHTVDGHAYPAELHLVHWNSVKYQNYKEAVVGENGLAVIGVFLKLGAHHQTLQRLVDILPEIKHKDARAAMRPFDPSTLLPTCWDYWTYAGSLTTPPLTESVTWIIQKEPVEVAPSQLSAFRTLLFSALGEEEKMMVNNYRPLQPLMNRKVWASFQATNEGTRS
# Carbonic anhydrase 9 = Carbonic anhydrase 9 (Homo sapiens, UniProt Q16790); test: Binding affinity to human carbonic anhydrase 9 assessed as inhibition constant
# SK-OV-3 [9] = test: Anticancer activity against human SK-OV-3 cells assessed as reduction in cell growth at 40 microg/ml incubated for 72 hrs by MTT assay relative to control; format: functional; set-up: scale not given: the % may be the effect or the level left; conditions: dose 40 µg/ml
# OVCAR-3 = test: Anticancer activity against human OVCAR-3 cells assessed as reduction in cell growth at 40 microg/ml incubated for 72 hrs by MTT assay relative to control; format: functional; set-up: scale not given: the % may be the effect or the level left; conditions: dose 40 µg/ml
# A549 = test: Antiproliferative activity against human A549 cells assessed as reduction in cell viability incubated for 72 hrs by CCK-8 assay; format: functional, cell-based; conditions: A549, 72 h
# [10] = Antiproliferative activity against human PC9 Gefitinib-resistant (GR) cell assessed as reduction in cell viability incubated for 72 hrs by CCK-8 assay; format: functional, cell-based
# Hepatocyte [11] = test: Hepatoprotective activity against CCl4-induced liver injury in male Wistar rat hepatocytes assessed as at 50 uM relative to control; format: functional
# K562 = test: Cytotoxicity against human K562 cells assessed as reduction in cell viability incubated for 24 hrs by MTT assay; format: functional, cell-based; conditions: K562, 24 h
# HeLa = test: Antiproliferative activity against human HeLa cells; format: functional, cell-based
# HepG2 [12] = test: Antiproliferative activity against human HepG2 cells; format: functional, cell-based
# BGC-823 = test: Antiproliferative activity against human BGC-823 cells; format: functional, cell-based
# KB = test: Cytotoxicity against human KB cells assessed as reduction in cell viability incubated for 48 hrs by MTT assay; format: functional, cell-based
# HepG2 [13] = test: Cytotoxicity against human HepG2 cells assessed as reduction in cell viability incubated for 48 hrs by MTT assay; format: functional, cell-based; conditions: HepG2, 48 h
# SK-LU-1 = test: Cytotoxicity against human SK-LU-1 cells assessed as reduction in cell viability incubated for 48 hrs by MTT assay; format: functional, cell-based; conditions: SK-LU-1, 48 h
# Jurkat = test: Antiproliferative activity against human Jurkat cells assessed as reduction in cell growth incubated for 72 hrs by XTT assay; format: functional, cell-based
# PC-3 = test: Antiproliferative activity against human PC-3 cells assessed as reduction in cell growth incubated for 72 hrs by MTT assay; format: functional, cell-based; conditions: PC-3, 72 h
# MIA PaCa-2 = test: Antiproliferative activity against human MIA PaCa-2 cells assessed as reduction in cell growth incubated for 72 hrs by MTT assay; format: functional, cell-based; conditions: MIA PaCa-2, 72 h
# A-375 [14] = test: Antiproliferative activity against human A-375 cells assessed as reduction in cell growth incubated for 72 hrs by MTT assay; format: functional, cell-based; conditions: A-375, 72 h
# Hepatocyte [15] = test: Hepatoprotective activity against glucosamine-induced liver injury in rat hepatocytes assessed as at 50 uM relative to control; format: functional
# SGC-7901 [16] = test: Antiproliferative activity against human SGC-7901 cells assessed as reduction in cell viability incubated for 72 hrs by MTT assay; format: functional, cell-based; conditions: SGC-7901, 72 h
# HepG2 [17] = test: Antiproliferative activity against human HepG2 cells assessed as reduction in cell viability incubated for 72 hrs by MTT assay; format: functional, cell-based; conditions: HepG2, 72 h
# HCT-116 [18] = test: Cytotoxicity against human HCT-116 cells assessed as reduction in cell viability incubated fro 48 hrs by MTT assay; format: functional, cell-based; conditions: HCT-116, 48 h
# [19] = Cytotoxicity against human SPCA1 cells assessed as reduction in cell viability incubated fro 48 hrs by MTT assay; format: functional, cell-based; conditions: SPCA1, 48 h
# SK-OV-3 [20] = test: Cytotoxicity against human SK-OV-3 cells assessed as reduction in cell viability incubated fro 48 hrs by MTT assay; format: functional, cell-based; conditions: SK-OV-3, 48 h
# HCT-116 [21] = test: Cytotoxicity against human HCT-116 cells assessed as reduction in cell growth incubated for 72 hrs by MTT assay; format: functional, cell-based; conditions: HCT-116, 72 h
# A2780 [22] = test: Cytotoxicity against human A2780 cells assessed as reduction in cell growth incubated for 72 hrs by MTT assay; format: functional, cell-based; conditions: A2780, 72 h
# HepG2 [23] = test: Cytotoxicity against human HepG2 cells assessed as reduction in cell growth incubated for 72 hrs by MTT assay; format: functional, cell-based; conditions: HepG2, 72 h
# HL-60 = test: Cytotoxicity against human HL-60 cells assessed as reduction in cell growth incubated for 72 hrs by MTT assay; format: functional, cell-based; conditions: HL-60, 72 h
# MCF7 [24] = test: Cytotoxicity against human MCF7 cells assessed as reduction in cell growth incubated for 72 hrs by MTT assay; format: functional, cell-based; conditions: MCF7, 72 h
# B16-F10 = test: Anticancer activity against mouse B16-F10 cells assessed as reduction in cell growth incubated for 72 hrs by CCK-8 assay; format: functional, cell-based; conditions: B16-F10, 72 h
# HT-29 [25] = test: Antiproliferative activity against human HT-29 cells assessed as reduction in cell viability incubated for 72 hrs by MTT assay; format: functional, cell-based; conditions: HT-29, 72 h
smiles,measurement,setting,value
CC(=O)O[C@@H]1C[C@@]2(C)[C@@H](CC[C@]3(C)[C@@H]2CC=C2[C@@H]4[C@@H](C)[C@H](C)CC[C@]4(C(=O)N4CCCN(C(=O)c5ccccc5-c5c6ccc(=[N+](CCO)CCO)cc-6oc6cc(N(CCO)CCO)ccc56)CCC4)CC[C@]23C)[C@](C)(OC(C)=O)[C@H]1OC(C)=O,IC50,A-375 [1],0.0074 µM
same,IC50,HT-29 [2],0.012 µM
same,IC50,MCF7 [3],0.017 µM
same,IC50,A2780 [4],0.0019 µM
CC(N)C(=O)N1CCN(C(=O)[C@]23CC[C@@H](C)[C@H](C)[C@H]2C2=CC[C@@H]4[C@@]5(C)C[C@@H](O)[C@H](O)[C@@](C)(CO)[C@@H]5CC[C@@]4(C)[C@]2(C)CC3)CC1 (stereo not given in full),IC50,[5],1190 µM
COc1cccc(NC(=O)[C@]23CC[C@@H](C)[C@H](C)[C@H]2C2=CC[C@@H]4[C@@]5(C)CC6=NCCN=C6[C@@](C)(C=O)[C@@H]5CC[C@@]4(C)[C@]2(C)CC3)c1,IC50,HepG2 [6],4.18 µM
same,IC50,SGC-7901 [7],3.96 µM
C[C@H]1[C@H](C)CC[C@]2(C(=O)Nc3ccccc3)CC[C@]3(C)C(=CC[C@@H]4[C@@]5(C)C[C@@H](OS(N)(=O)=O)[C@H](OS(N)(=O)=O)[C@@](C)(COS(N)(=O)=O)[C@@H]5CC[C@]43C)[C@H]12,Ki,Carbonic anhydrase 1,5.23 µM
same,Ki,Carbonic anhydrase 2,0.298 µM
same,Ki,[8],0.0362 µM
same,Ki,Carbonic anhydrase 9,0.0258 µM
C[C@H]1[C@H](C)CC[C@]2(C(=O)O)CC[C@]3(C)C(=CC[C@@H]4[C@@]5(C)C[C@@H](O)[C@H](O)[C@@](C)(CO)[C@@H]5CC[C@]43C)[C@H]12 [ASIATIC ACID],Activity,SK-OV-3 [9],50%
same,Activity,OVCAR-3,50%
C[C@H]1[C@H](C)CC[C@]2(C(=O)O)CC[C@]3(C)C(=CC[C@@H]4[C@@]5(C)C[C@@H](OC(=O)CCC(=O)O)[C@@H]6OC(C)(C)OC[C@@]6(C)[C@@H]5CC[C@]43C)[C@H]12,IC50,A549,26 µM
same,IC50,[10],25.6 µM
C[C@H]1[C@H](C)CC[C@]2(C(=O)O)CC[C@]3(C)C(=CC[C@@H]4[C@@]5(C)CC[C@H](O)[C@@](C)(CO)[C@@H]5CC[C@]43C)[C@H]12,Activity,Hepatocyte [11],58.3%
C[C@H]1[C@H](C)CC[C@]2(C(=O)OCc3ccccc3)CC[C@]3(C)C(=CC[C@@H]4[C@@]5(C)C[C@@H](O)[C@H](O)[C@@](C)(CO)[C@@H]5CC[C@]43C)[C@H]12,IC50,K562,4.1 µM
CC(=O)OC[C@@]1(C)[C@@H]2CC[C@]3(C)[C@H](C(=O)C=C4[C@@H]5[C@@H](C)[C@H](C)CC[C@]5(C(=O)OCCO)CC[C@]43C)[C@@]2(C)C[C@@H](OC(C)=O)[C@@H]1OC(C)=O,IC50,HeLa,4.78 µM
same,IC50,HepG2 [12],6.84 µM
same,IC50,BGC-823,8.75 µM
CCOC(=O)CNC(=O)[C@]12CC[C@@H](C)[C@H](C)[C@H]1C1=CC[C@@H]3[C@@]4(C)C[C@@H](OC(C)=O)[C@H](OC(C)=O)[C@@](C)(COC(C)=O)[C@@H]4CC[C@@]3(C)[C@]1(C)CC2,IC50,KB,1.39 µM
same,IC50,HepG2 [13],1.99 µM
same,IC50,SK-LU-1,1.39 µM
COC(=O)[C@]12CC[C@@H](C)[C@H](C)[C@H]1C1=CC(=O)[C@@H]3[C@@]4(C)C(C=O)=C[C@@](C)(COS(C)(=O)=O)[C@@H]4CC[C@@]3(C)[C@]1(C)CC2,IC50,Jurkat,0.11 µM
same,IC50,PC-3,0.42 µM
same,IC50,MIA PaCa-2,0.46 µM
same,IC50,A-375 [14],0.25 µM
COC(=O)[C@]12CC[C@@H](C)[C@H](C)[C@H]1C1=CC[C@@H]3[C@@]4(C)C[C@@H](OC(C)=O)C(=O)[C@@](C)(CC(=O)O)[C@@H]4CC[C@@]3(C)[C@]1(C)CC2,Activity,Hepatocyte [15],66.4%
CC(=O)OC[C@@]1(C)[C@@H]2CC[C@]3(C)[C@H](C(=O)C=C4[C@@H]5[C@@H](C)[C@H](C)CC[C@]5(C(=O)Nc5ccccc5CO)CC[C@]43C)[C@@]2(C)C[C@@H](OC(C)=O)[C@@H]1OC(C)=O,IC50,SGC-7901 [16],3.2 µM
same,IC50,HepG2 [17],2.2 µM
CCOP(=O)(OCC)C(NC(=O)[C@]12CC[C@@H](C)[C@H](C)[C@H]1C1=CC[C@@H]3[C@@]4(C)C[C@@H](OC(C)=O)[C@H](OC(C)=O)[C@@](C)(COC(C)=O)[C@@H]4CC[C@@]3(C)[C@]1(C)CC2)c1ccccc1Cl (stereo not given in full),IC50,HCT-116 [18],26.1 µM
same,IC50,[19],15 µM
same,IC50,SK-OV-3 [20],27.5 µM
COC(=O)[C@@]1(C)[C@@H]2CC[C@]3(C)[C@H](CC=C4[C@@H]5[C@@H](C)[C@H](C)CC[C@]5(C(=O)Nc5ccccc5)CC[C@]43C)[C@@]2(C)C[C@@H](OC)[C@@H]1OC(C)=O,IC50,HCT-116 [21],1.08 µM
same,IC50,A2780 [22],1.28 µM
same,IC50,HepG2 [23],1.43 µM
same,IC50,HL-60,0.48 µM
same,IC50,MCF7 [24],3.99 µM
COC(=O)C1CCCN1C(=O)[C@]12CC[C@@H](C)[C@H](C)[C@H]1C1=CC[C@@H]3[C@@]4(C)C[C@@H](OC(C)=O)[C@H](OC(C)=O)[C@@](C)(COC(C)=O)[C@@H]4CC[C@@]3(C)[C@]1(C)CC2 (stereo not given in full),IC50,B16-F10,4.2 µM
CC(=O)OC[C@@]1(C)[C@@H]2CC[C@]3(C)[C@H](CC=C4[C@@H]5[C@@H](C)[C@H](C)CC[C@]5(C(=O)NO)CC[C@]43C)[C@@]2(C)C[C@@H](OC(C)=O)[C@@H]1OC(C)=O,IC50,HT-29 [25],4.12 µM
